The results in this text go back to US20030186887A1, “Compounds for detection of infection by chlamydophila abortus” (priority 2000, published 2003).

Where “and” joins values, the source holds several entries; their conditions need not be identical. Equal values may be shown once. Read-outs that look alike come from different tables or passages of the source. Ends that are not written are not given here. * marks the point of attachment. Biotin = O=C1N[C@H]2[C@H](CS[C@H]2CCCCC(=O)*)N1

The test system of series [1] is sera from sheep free of infection with C. abortus. The source says:
In the Applicant's experience at least two different forms of microtitration plates may be used. One form uses tresyl-activated dextran, which is applied to the polystyrene plate and forms a layer between the plate and the peptide (Gregorius et al., 1995). The commercially available plates (‘Aquabind™’) are produced by M&E, Denmark and marketed in the UK through Labsystems by Life Sciences. […] The second form of plate is one modified by coating with streptavidin. Such plates are commercially available e.g. Labsystems, Pierce and Warriner. […] The preferred microtitration plate types used to bind streptavidin are those modified to provide high protein binding e.g. Dynex Immulon 2, Greiner High Bind. To each well is added streptavidin in 150 μl volumes. The plates are incubated, preferably for 2 hours at 35-37° C., then the contents ejected and the plates washed 3 times with PBS buffer, pH 7.4 (Appendix). The plates are thoroughly dried and stored at 4° C. until required. Application of the peptide mixture is performed as follows:
The stock solutions (1 mg per ml) of the selected peptides are diluted in the same volume of carbonate-bicarbonate buffer, pH 9.6, to their optimum concentration. […] The peptide mixture solution is added in volumes of 150 μl per well. In a ‘controlled’ test, the peptide mixture is added to all wells in even numbered columns, while carbonate-bicarbonate buffer is added to all wells in odd-numbered columns in the same volume per well. In ‘screen’ tests, where control wells are not used for each sample, the peptide mixture is added to all 96 wells on the plate. The plates are incubated, preferably at 4° C. for 4 to 12 hours, then washed 4 times with PBS/Tween buffer (Appendix) and thoroughly dried, preferably for 4 hours in a fan-driven cabinet. The coated plates are placed in watertight bags with a desiccant, and the bags sealed and stored at 4° C. until required.
Two dilutions of standard serum are used. One, employed at a dilution of 1 in 1000, is used to indicate successful performance of the test (‘standard positive’). […] In the kits, the positive and cut-off standards are provided pre-diluted to working strength in a proprietary stabilisation buffer (Dako) which contains a preservative (ProClin 300; Supelco; used at 1 in 2000), and are not diluted further before addition to the test plate.
The test serum samples are diluted 1:100 in Serum Conjugate Diluent (Appendix). The test kits provide a Diluter plate, which has very low protein binding properties. By adding 15 μl of serum to 135 μl of Serum Conjugate Diluent on the Diluter plate, an initial 1 in 10 dilution is achieved. Transfer of 15 μl from the Diluter plate to 135 μl of Serum Conjugate Diluent dispensed into each well in the test plate enables a further dilution to 1 in 100 (from the original sample) on the test plate. […] Dilution of sera can also be performed, if preferred, in bijoux or tubes before their addition in 150 μl volumes to the Test plate.
Test and standard sera are incubated on the Test plate for 15 min at room temperature (˜20° C.), then 30 min at 37° C. Plate contents are then ejected and the plate washed 4 times with PBS/Tween (Appendix) and dried.
A probe to detect the presence of immunoglobulin, to which is conjugated an enzyme (the ‘conjugate’), is then added. Preferably, the probe constitutes Protein G (recombinant form, in which the moiety that binds to albumin has been eliminated; available from Sigma and Calbiochem) conjugated with horse radish peroxidase, but many forms of conjugate are available. These include, as probes, Protein A; and monoclonal or polyclonal antibodies against the immunoglobulins of the species providing the test sample.

The test system of a further series is antibodies to C. abortus. The series can be described thus: ELISA, serological reactivity of biotinylated peptides against serum dilutions (Tables 1 and 2). Type of series: binding, sheep. As to the method: Application of the peptide mixture is performed as follows:
Two dilutions of standard serum are used.
The data illustrate that the length of compound has a major impact on serological reactivity.
Thus, substitutions within the core epitopes described in this invention are possible without too much loss in compound serological reactivity.

Series [2] can be described thus: Solubilisation of compounds. The class given is physicochemical. The note with it: water. The protocol:
Each peptide is resuspended in the preferred solvent to a concentration of 1 mg per ml. This stock solution is dispensed in 500 μl volume aliquots in 1 ml bottles, labelled and stored at −85° C. or, less preferably, at −20° C.

[3] abbreviates: PS (Positive Control Serum) 1/1000.
The mark [4] stands for this setting: PS (Positive Control Serum) 1/15000.
Setting [5] is: serum of Animal No. 14, sheep free of infection with C. abortus.
Setting [6] is: serum of Animal No. 13, sheep free of infection with C. abortus.
Setting [7] is: serum of Animal No. 19, sheep free of infection with C. abortus.
[8] abbreviates: serum of Animal No. 28, sheep free of infection with C. abortus.
The mark [9] stands for this setting: serum of Animal No. 36, sheep free of infection with C. abortus.
[10] abbreviates: serum of Animal No. 31, sheep free of infection with C. abortus.
[11] abbreviates: serum of Animal No. 37, sheep free of infection with C. abortus.

“Biotin-KTITGMGAVPTGTAAANYKT [Compound 1/AX]”: the “Net OD [Gross OD - No compound OD]” value was 3.690 in series [1] (setting [3]), 0.493 in series [1] (setting [4]) and 0.511 in series [1] (setting [5]).
For “Biotin-KKKKKGLIGVKGSSIAAD [Compound 2-5]”, the “Net Optical Density” value was 2.344 in the series on antibodies to C. abortus (serum dilution 1/100); 1/468 and 1.468 with antibodies to C. abortus (serum dilution 1/200); 0.771 in the series on antibodies to C. abortus (serum dilution 1/400); 0.358 with antibodies to C. abortus (serum dilution 1/800); 0.156 in the series on antibodies to C. abortus (serum dilution 1/1600); 0.066 with antibodies to C. abortus (serum dilution 1/3200). Moreover, the “Net Optical Density” value with antibodies to C. abortus (serum dilution 1/6400) was determined as 0.036.
On to “Biotin-KKKKKKKGVKGSSIAADQLPN [Compound 2-7]”, for which the “Net OD [Gross OD - No compound OD]” value in series [1] (setting [3]) came to 1.038; in series [1] (setting [4]), 0.059; in series [1] (serum of Animal No. 11, sheep free of infection with C. abortus), 0.607; in series [1] (setting [6]) it was 0.198; in series [1] (setting [7]) it was 0.119; in series [1] (serum of Animal No. 29, sheep free of infection with C. abortus), 0.144.
For the substance Biotin-CLIGVKGSSAAD [Compound 2-4], the “Net Optical Density” value in the series on antibodies to C. abortus (serum dilution 1/100) is reported as 2.173; in the series with antibodies to C. abortus (serum dilution 1/200), 1.241; in the series on antibodies to C. abortus (serum dilution 1/400), 0.572; in the series with antibodies to C. abortus (serum dilution 1/800), 0.278; with antibodies to C. abortus (serum dilution 1/1600) it was 0.133; with antibodies to C. abortus (serum dilution 1/3200), 0.064. In addition, in the series on antibodies to C. abortus (serum dilution 1/6400), the “Net Optical Density” value amounted to 0.040.
On to “Biotin-KKKKKGLIGVKGSS L AAD [Compound 2-11]”, for which, in the series with antibodies to C. abortus (2-9 compared with 2-3, 2-11 compared with 2-5), the “effect of substituting isoleucine with leucine within Epitope 2 on reactivity” value was “small decrease in reactivity”. Besides, the “Net Optical Density” value in the series on antibodies to C. abortus (serum dilution 1/100) was determined as 2.008; in the series with antibodies to C. abortus (serum dilution 1/200), 1.230; in the series on antibodies to C. abortus (serum dilution 1/400), 0.637; with antibodies to C. abortus (serum dilution 1/800), 0.299; in the series on antibodies to C. abortus (serum dilution 1/1600) it was 0.133; in the series on antibodies to C. abortus (serum dilution 1/3200), 0.053. In addition, the “Net Optical Density” value in the series with antibodies to C. abortus (serum dilution 1/6400) was determined as 0.026.
Regarding GKGSSIAADQNKGSSIAADQ [Compound #2], the solubility result in series [2] is “soluble in water”.
Take Biotin-KGSSIAAD [Compound 2-1]: the “Net Optical Density” value with antibodies to C. abortus (serum dilution 1/100), with antibodies to C. abortus (serum dilution 1/200), with antibodies to C. abortus (serum dilution 1/400), in the series on antibodies to C. abortus (serum dilution 1/800), with antibodies to C. abortus (serum dilution 1/1600) and with antibodies to C. abortus (serum dilution 1/3200) was 0.000 throughout. Besides, in the series on antibodies to C. abortus (serum dilution 1/6400), the “Net Optical Density” value came to 0.000. The “reactivity (in words)” value in the series on antibodies to C. abortus (studies of Table 1) is recorded as “no reactivity whatsoever”.
As to “Biotin-KASSAAFNLVGLIVKGSSIAADQ [Compound 2/L]”, the “Net OD [Gross OD - No compound OD]” value in series [1] (setting [3]) is reported as 1.534; in series [1] (setting [4]), 0.098; in series [1] (serum of Animal No. 5, sheep free of infection with C. abortus) it was 0.285; in series [1] (setting [6]) it was 0.572; in series [1] (setting [8]) it was 0.389; in series [1] (setting [9]), 0.128. For the same substance, the “Net Optical Density” value in the series on antibodies to C. abortus (serum dilution 1/100) was 2.629; with antibodies to C. abortus (serum dilution 1/200), 1.885; with antibodies to C. abortus (serum dilution 1/400), 1.107; in the series with antibodies to C. abortus (serum dilution 1/800), 0.544; with antibodies to C. abortus (serum dilution 1/1600), 0.263; in the series on antibodies to C. abortus (serum dilution 1/3200), 0.115. Moreover, the “Net Optical Density” value with antibodies to C. abortus (serum dilution 1/6400) is given as 0.056.
Take Biotin-KKKKKKGSSIAAD [Compound 2-2]: the “Net Optical Density” value worked out at 1.515 in the series with antibodies to C. abortus (serum dilution 1/100); 0.786 in the series with antibodies to C. abortus (serum dilution 1/200); 0.385 in the series on antibodies to C. abortus (serum dilution 1/400); 0.174 in the series on antibodies to C. abortus (serum dilution 1/800); 0.068 in the series on antibodies to C. abortus (serum dilution 1/1600); 0.046 in the series with antibodies to C. abortus (serum dilution 1/3200). Further, in the series with antibodies to C. abortus (serum dilution 1/6400), the “Net Optical Density” value came to 0.024. Moreover, the “reactivity relative to that displayed by Compound 2-3” value in the series on antibodies to C. abortus (studies of Table 1) is “approximately 70%”.
Turning to “Biotin-KTITGKKKKGTAAANYKTPTD [Compound 1-6]”, the “Net OD [Gross OD - No compound OD]” value in series [1] (setting [3]) turned out to be 3.352; in series [1] (setting [4]), 0.354; in series [1] (setting [7]), 1.316; in series [1] (setting [8]) it was 0.114; in series [1] (setting [10]), 0.636; in series [1] (setting [9]) it was 0.500. In addition, the “Net OD [Gross OD - No compound OD]” value in series [1] (setting [11]) is on record as 0.344.
With SGTAAANYKTKGTAAANYKT [Compound #1], the solubility result in series [2] is recorded as “soluble in water”.
On to “Biotin-KTITGKKVPTGTAAANYKTPT [Compound 1-5]”, for which the “Net OD [Gross OD - No compound OD]” value is on record as 3.744 in series [1] (setting [3]); 0.452 in series [1] (setting [4]); 0.978 in series [1] (setting [5]); 0.747 in series [1] (setting [7]); 0.352 in series [1] (setting [8]); 0.423 in series [1] (setting [10]). Further, in series [1] (setting [11]), the “Net OD [Gross OD - No compound OD]” value amounted to 0.580.
Regarding “Biotin-KKKKKKKKKKKGSSIAAD [Compound 2-3]”, the “Net Optical Density” value in the series with antibodies to C. abortus (serum dilution 1/100) worked out at 2.075; in the series on antibodies to C. abortus (serum dilution 1/200), 1.133; in the series with antibodies to C. abortus (serum dilution 1/400), 0.540; with antibodies to C. abortus (serum dilution 1/800) it was 0.214; in the series on antibodies to C. abortus (serum dilution 1/1600) it was 0.095; in the series on antibodies to C. abortus (serum dilution 1/3200), 0.031. In the series on antibodies to C. abortus (serum dilution 1/6400), the “Net Optical Density” value is listed as 0.007.
